Earlier results on two substances are cited in patent US9399756B2, “Functionalized fullerenes as a biomass stimulant and a life extension agent” (UNIVERSITY OF FLORIDA RESEARCH FOUNDATION, INC., priority 2010, dated 2016).

The subject of data set [1] is mice. To be noted: Quick et al., Neurobiology of Aging 2008.
Data set [2] concerns mice. To be noted: injected; Zhou et al. 2009.

e,e,e-C60(C(CO2H)2)3: the lifespan of mice result in the data set with mice [1] was “may extend the lifespan of mice”.

On to (H23C11CO2)2CC60C(CO2CH2CO2H)2, for which the “hair growth in mice” value with mice [2] was “may stimulate hair growth in mice”.
